{"source": "ChEMBL document CHEMBL1671626", "about": "“In vitro profiling of ceftaroline against a collection of recent bacterial clinical isolates from across the United States” (2008)", "format_in_all_cases": "functional", "key": {"Serratia marcescens [1]": {"tested_on": "Serratia marcescens", "experiment": "Antibacterial activity against ceftazidime-susceptible Serratia marcescens assessed as susceptible isolates by CLSI M7-A7 broth microdilution method"}, "Enterobacteriaceae [2]": {"tested_on": "Enterobacteriaceae", "experiment": "Antibacterial activity against ceftazidime-nonsusceptible Enterobacteriaceae assessed as resistant isolates by CLSI M7-A7 broth microdilution method"}, "Klebsiella pneumoniae [3]": {"tested_on": "Klebsiella pneumoniae", "experiment": "Antibacterial activity against ceftazidime-nonsusceptible Klebsiella pneumoniae by CLSI M7-A7 broth microdilution method"}, "Citrobacter freundii [4]": {"tested_on": "Citrobacter freundii", "experiment": "Antibacterial activity against ceftazidime-nonsusceptible Citrobacter freundii assessed as susceptible isolates by CLSI M7-A7 broth microdilution method"}, "Providencia sp. [5]": {"tested_on": "Providencia sp.", "experiment": "Antibacterial activity against ceftazidime-susceptible Providencia sp. assessed as resistant isolates by CLSI M7-A7 broth microdilution method"}, "Enterobacteriaceae [6]": {"tested_on": "Enterobacteriaceae", "experiment": "Antibacterial activity against ceftazidime-susceptible Enterobacteriaceae assessed as resistant isolates by CLSI M7-A7 broth microdilution method"}, "Citrobacter freundii [7]": {"tested_on": "Citrobacter freundii", "experiment": "Antibacterial activity against ceftazidime-susceptible Citrobacter freundii by CLSI M7-A7 broth microdilution method"}, "Acinetobacter [8]": {"tested_on": "Acinetobacter", "experiment": "Antibacterial activity against imipenem-susceptible Acinetobacter assessed as resistant isolates by CLSI M7-A7 broth microdilution method"}, "Enterobacter cloacae [9]": {"tested_on": "Enterobacter cloacae", "experiment": "Antibacterial activity against ceftazidime-susceptible Enterobacter cloacae assessed as susceptible isolates by CLSI M7-A7 broth microdilution method"}, "Morganella morganii": {"tested_on": "Morganella morganii", "experiment": "Antibacterial activity against ceftazidime-susceptible Morganella morganii by CLSI M7-A7 broth microdilution method"}, "Proteus mirabilis": {"tested_on": "Proteus mirabilis", "experiment": "Antibacterial activity against ceftazidime-susceptible Proteus mirabilis assessed as susceptible isolates by CLSI M7-A7 broth microdilution method"}, "Enterobacter cloacae [10]": {"tested_on": "Enterobacter cloacae", "experiment": "Antibacterial activity against ceftazidime-nonsusceptible Enterobacter cloacae by CLSI M7-A7 broth microdilution method"}, "Enterobacter cloacae [11]": {"tested_on": "Enterobacter cloacae", "experiment": "Antibacterial activity against ceftazidime-nonsusceptible Enterobacter cloacae assessed as susceptible isolates by CLSI M7-A7 broth microdilution method"}, "Haemophilus influenzae [12]": {"tested_on": "Haemophilus influenzae", "experiment": "Antibacterial activity against beta lactamase-negative Haemophilus influenzae by CLSI M7-A7 broth microdilution method"}, "Citrobacter freundii [13]": {"tested_on": "Citrobacter freundii", "experiment": "Antibacterial activity against ceftazidime-nonsusceptible Citrobacter freundii by CLSI M7-A7 broth microdilution method"}, "Citrobacter freundii [14]": {"tested_on": "Citrobacter freundii", "experiment": "Antibacterial activity against ceftazidime-susceptible Citrobacter freundii assessed as susceptible isolates by CLSI M7-A7 broth microdilution method"}, "Acinetobacter [15]": {"tested_on": "Acinetobacter", "experiment": "Antibacterial activity against multidrug-resistant Acinetobacter assessed as susceptible isolates by CLSI M7-A7 broth microdilution method"}, "Providencia sp. [16]": {"tested_on": "Providencia sp.", "experiment": "Antibacterial activity against ceftazidime-susceptible Providencia sp. by CLSI M7-A7 broth microdilution method"}, "Serratia marcescens [17]": {"tested_on": "Serratia marcescens", "experiment": "Antibacterial activity against ceftazidime-susceptible Serratia marcescens by CLSI M7-A7 broth microdilution method"}, "Citrobacter freundii [18]": {"tested_on": "Citrobacter freundii", "experiment": "Antibacterial activity against ceftazidime-nonsusceptible Citrobacter freundii assessed as resistant isolates by CLSI M7-A7 broth microdilution method"}, "Acinetobacter [19]": {"tested_on": "Acinetobacter", "experiment": "Antibacterial activity against imipenem-susceptible Acinetobacter assessed as susceptible isolates by CLSI M7-A7 broth microdilution method"}, "Klebsiella pneumoniae [20]": {"tested_on": "Klebsiella pneumoniae", "experiment": "Antibacterial activity against ceftazidime-susceptible Klebsiella pneumoniae assessed as resistant isolates by CLSI M7-A7 broth microdilution method"}, "Escherichia coli [21]": {"tested_on": "Escherichia coli", "experiment": "Antibacterial activity against ceftazidime-nonsusceptible Escherichia coli assessed as susceptible isolates by CLSI M7-A7 broth microdilution method"}, "Escherichia coli [22]": {"tested_on": "Escherichia coli", "experiment": "Antibacterial activity against ceftazidime-susceptible Escherichia coli assessed as resistant isolates by CLSI M7-A7 broth microdilution method"}, "Enterobacteriaceae [23]": {"tested_on": "Enterobacteriaceae", "experiment": "Antibacterial activity against ceftazidime-nonsusceptible Enterobacteriaceae assessed as susceptible isolates by CLSI M7-A7 broth microdilution method"}, "Haemophilus influenzae [24]": {"tested_on": "Haemophilus influenzae", "experiment": "Antibacterial activity against beta lactamase-negative Haemophilus influenzae assessed as susceptible isolates by CLSI M7-A7 broth microdilution method"}, "Enterobacter cloacae [25]": {"tested_on": "Enterobacter cloacae", "experiment": "Antibacterial activity against ceftazidime-susceptible Enterobacter cloacae assessed as resistant isolates by CLSI M7-A7 broth microdilution method"}}, "data": [{"smiles": "CCN1CCN(C(=O)N[C@@H](C(=O)N[C@@H]2C(=O)N3[C@@H]2SC(C)(C)[C@@H]3C(=O)O)c2ccccc2)C(=O)C1=O", "note": "[PIPERACILLIN]", "values": [{"measurement": "Activity", "setting": "Serratia marcescens [1]", "result": 93.2, "unit": "%"}, {"measurement": "Activity", "setting": "Enterobacteriaceae [2]", "result": 38.6, "unit": "%"}, {"measurement": "MIC50", "setting": "Klebsiella pneumoniae [3]", "result": "> 64", "unit": "µg/mL"}, {"measurement": "MIC90", "setting": "Klebsiella pneumoniae [3]", "result": "> 64", "unit": "µg/mL"}, {"measurement": "Activity", "setting": "Citrobacter freundii [4]", "result": 24.2, "unit": "%"}, {"measurement": "Activity", "setting": "Providencia sp. [5]", "result": 3.7, "unit": "%"}, {"measurement": "Activity", "setting": "Enterobacteriaceae [6]", "result": 1.6, "unit": "%"}, {"measurement": "MIC50", "setting": "Citrobacter freundii [7]", "result": 2, "unit": "µg/mL"}, {"measurement": "MIC90", "setting": "Citrobacter freundii [7]", "result": 4, "unit": "µg/mL"}, {"measurement": "Activity", "setting": "Acinetobacter [8]", "result": 21.3, "unit": "%"}, {"measurement": "Activity", "setting": "Enterobacter cloacae [9]", "result": 98, "unit": "%"}, {"measurement": "MIC", "setting": "Morganella morganii", "result": "≤ 0.5", "unit": "µg/mL"}, {"measurement": "MIC50", "setting": "Morganella morganii", "result": "≤ 0.5", "unit": "µg/mL"}, {"measurement": "MIC90", "setting": "Morganella morganii", "result": 1, "unit": "µg/mL"}, {"measurement": "Activity", "setting": "Proteus mirabilis", "result": 100, "unit": "%"}, {"measurement": "MIC50", "setting": "Enterobacter cloacae [10]", "result": "> 64", "unit": "µg/mL"}, {"measurement": "MIC90", "setting": "Enterobacter cloacae [10]", "result": "> 64", "unit": "µg/mL"}, {"measurement": "Activity", "setting": "Enterobacter cloacae [11]", "result": 25.7, "unit": "%"}, {"measurement": "MIC", "setting": "Haemophilus influenzae [12]", "result": "≤ 0.03", "unit": "µg/mL"}, {"measurement": "MIC50", "setting": "Haemophilus influenzae [12]", "result": "≤ 0.03", "unit": "µg/mL"}, {"measurement": "MIC90", "setting": "Haemophilus influenzae [12]", "result": 0.06, "unit": "µg/mL"}, {"measurement": "MIC50", "setting": "Citrobacter freundii [13]", "result": 32, "unit": "µg/mL"}, {"measurement": "MIC90", "setting": "Citrobacter freundii [13]", "result": "> 64", "unit": "µg/mL"}, {"measurement": "Activity", "setting": "Citrobacter freundii [14]", "result": 100, "unit": "%"}, {"measurement": "Activity", "setting": "Acinetobacter [15]", "result": 0, "unit": "%"}, {"measurement": "MIC50", "setting": "Providencia sp. [16]", "result": 2, "unit": "µg/mL"}, {"measurement": "MIC90", "setting": "Providencia sp. [16]", "result": 16, "unit": "µg/mL"}, {"measurement": "MIC50", "setting": "Serratia marcescens [17]", "result": 2, "unit": "µg/mL"}, {"measurement": "MIC90", "setting": "Serratia marcescens [17]", "result": 16, "unit": "µg/mL"}, {"measurement": "Activity", "setting": "Citrobacter freundii [18]", "result": 39.4, "unit": "%"}, {"measurement": "Activity", "setting": "Acinetobacter [19]", "result": 68.1, "unit": "%"}, {"measurement": "Activity", "setting": "Klebsiella pneumoniae [20]", "result": 0.5, "unit": "%"}, {"measurement": "Activity", "setting": "Escherichia coli [21]", "result": 68.3, "unit": "%"}, {"measurement": "Activity", "setting": "Escherichia coli [22]", "result": 2.3, "unit": "%"}, {"measurement": "Activity", "setting": "Enterobacteriaceae [23]", "result": 43.2, "unit": "%"}, {"measurement": "Activity", "setting": "Haemophilus influenzae [24]", "result": 100, "unit": "%"}, {"measurement": "Activity", "setting": "Enterobacter cloacae [25]", "result": 2, "unit": "%"}]}]}
